# Measured values taken from patent US20230187019A1, “METHOD FOR DETERMINING A DRUG COMBINATION VIA A BLOCKING MODEL OF A MULTI-SITE-TARGETED PROTEIN AND APPLICATIONS THEREOF” (National Tsing Hua University, priority 2021, published 2023).
# Entries after “also recorded” stand apart in the source; their conditions may differ. Like-named read-outs stand apart in the source and are kept apart here.
# Legend:
# shCtrl/HCT116 = test: Cell viability assay on shCtrl/HCT116 (control strain); type: cell-based, human; conditions: for shCtrl/HCT116 Cell Viability: remaining viability; for viability at 20 µM: Homo sapiens
# shATG4B/HCT116 = test: Cell viability assay on shATG4B/HCT116 (ATG4B silencing strain); type: cell-based, human; conditions: for difference of cell viability inhibition between shATG4B/HCT116 (S strain) and shCtrl/HCT116 (C strain): Student's t-test, p-value <0.05; for shATG4B/HCT116 Cell Viability: remaining viability; for viability at 20 µM: Homo sapiens
# AsPC-1 = test: Cell viability assay (MTT) on AsPC-1; conditions: for inhibition of cell viability, significance: 20 μM, AsPC-1, p-value <0.05; for AsPC-1 Cell Viability: remaining viability, 20 μM drug, normalized by blank control, three repeats; for viability at 20 µM: Homo sapiens, ASPC1, read-out: AsPC-1 Cell Viability, remaining viability, 20 μM drug, normalized by blank control, three repeats
# HCT116 = test: Cell viability assay on HCT116; type: cell-based, human; conditions: for HCT116 Cell Viability: remaining viability; for viability at 20 µM: Homo sapiens
# ATG4B = ATG4B (Homo sapiens, UniProt Q9Y4P1); test: In vitro cleavage assay of ATG4B catalytic activity (western blot of tagged LC3B); type: biochemical; conditions: read-out: inhibition on ATG4B's catalytic activity
# AK4.4 = test: Cell viability assay (MTT) on AK4.4; conditions: Mus musculus, read-out: IC50, Pn
# [1] = target: full-length fusion protein composed of C-Myc, pro-LC3B, and S-tag, Q9GZQ8
# [2] = 20 μM drug, normalized by blank control, three repeats
# [3] = HCT-116, remaining viability, 20 μM drug, C strain, read-out: shCtrl/HCT116 Cell Viability
# [4] = HCT-116, remaining viability, 20 μM drug, S strain, read-out: shATG4B/HCT116 Cell Viability
# [5] = HCT-116, remaining viability, 20 μM drug, normalized by blank control, three repeats, read-out: HCT116 Cell Viability
Molecule,"inhibition of cell viability, significance (AsPC-1)",HCT116 Cell Viability (HCT116; [2]) [%],viability at 20 µM (shCtrl/HCT116; [3]) [%],viability at 20 µM (shATG4B/HCT116; [4]) [%],viability at 20 µM (AsPC-1) [%],viability at 20 µM (HCT116; [5]) [%],other results
CC[C@@]1(O)C[C@H](O[C@H]2C[C@H](N(C)C)[C@H](O[C@H]3C[C@H](O)[C@H](O[C@H]4CCC(=O)[C@H](C)O4)[C@H](C)O3)[C@H](C)O2)c2c(cc3c(c2O)C(=O)c2c(O)cccc2C3=O)[C@H]1C(=O)OC [Aclacinomycin A],statistically significant,27.9 ± 1.3,–,–,–,–,"shCtrl/HCT116 Cell Viability (shCtrl/HCT116; 20 μM drug, C strain): 27.7 ± 1.2%; shCtrl/HCT116 Cell Viability (shCtrl/HCT116; 20 μM drug, C strain, listed as aclacinomycin A): 28%; difference of cell viability inhibition between shATG4B/HCT116 (S strain) and shCtrl/HCT116 (C strain) (shATG4B/HCT116): statistically significant; also recorded: significant differences; shATG4B/HCT116 Cell Viability (shATG4B/HCT116; 20 μM drug, S strain): 38.4 ± 1.3%; shATG4B/HCT116 Cell Viability (shATG4B/HCT116; 20 μM drug, S strain, listed as aclacinomycin A): 38%; AsPC-1 Cell Viability (AsPC-1): 48.3 ± 4.6%; AsPC-1 Cell Viability (AsPC-1; listed as aclacinomycin A): 48%; HCT116 Cell Viability (HCT116; 20 μM drug, normalized by blank control, three repeats, listed as aclacinomycin A): 28%"
O=C(c1c2ccccc2cc2ccccc12)N1CCC(N2CCC[C@@H](C(=O)N3CCOCC3)C2)CC1 [CP-640186],–,84.3 ± 2.0,–,–,–,–,AsPC-1 Cell Viability (AsPC-1): 87.4 ± 4.7%
Cc1nc2c([nH]1)-c1ccccc1N(C(=O)c1ccc(NC(=O)c3ccccc3-c3ccccc3)cc1)CC2 [Conivaptan],–,–,69.5 ± 2.2,84 ± 2,99.3 ± 2.8,67.8 ± 0.5,–
COC(=O)N[C@H](C(=O)N1CCC[C@H]1c1nc(-c2ccc(-c3ccc(-c4c[nH]c([C@@H]5CCCN5C(=O)[C@@H](NC(=O)OC)C(C)C)n4)cc3)cc2)c[nH]1)C(C)C [Daclatasvir],–,–,58.8 ± 2.6,69.4 ± 3.7,71.1 ± 4.2,62.7 ± 0.3,–
CC(C)[C@@]1(NC(=O)[C@@H]2C[C@@H]3c4cccc5[nH]cc(c45)C[C@H]3N(C)C2)O[C@@]2(O)[C@@H]3CCCN3C(=O)[C@H](Cc3ccccc3)N2C1=O [Dihydroergocristine],statistically significant,–,–,–,77.1 ± 1.6,64 ± 3.7,–
C[C@@H]1CCO[C@H]2Cn3cc(C(=O)NCc4ccc(F)cc4F)c(=O)c(O)c3C(=O)N12 [Dolutegravir],–,–,85.5 ± 2.9,89.4 ± 2.5,106 ± 5.3,88 ± 4,difference of cell viability inhibition between shATG4B/HCT116 (S strain) and shCtrl/HCT116 (C strain) (shATG4B/HCT116): statistically significant; also recorded: significant differences
C#C[C@]1(O)CC[C@H]2[C@@H]3CCc4cc(O)ccc4[C@H]3CC[C@@]21C [Ethynyl Estradiol],statistically significant,47.4 ± 1.8,49,70,80.1 ± 6.4,47,"shCtrl/HCT116 Cell Viability (shCtrl/HCT116; 20 μM drug, C strain): 48.7 ± 1.4%; difference of cell viability inhibition between shATG4B/HCT116 (S strain) and shCtrl/HCT116 (C strain) (shATG4B/HCT116): statistically significant; also recorded: significant differences; shATG4B/HCT116 Cell Viability (shATG4B/HCT116; 20 μM drug, S strain): 69.5 ± 3.3%"
Cc1cc(-c2ccc(/N=N/c3ccc4c(S(=O)(=O)O)cc(S(=O)(=O)O)c(N)c4c3O)c(C)c2)ccc1/N=N/c1ccc2c(S(=O)(=O)O)cc(S(=O)(=O)O)c(N)c2c1O [Evans Blue],statistically significant,34.8 ± 1.3,35,34,34,35,"shCtrl/HCT116 Cell Viability (shCtrl/HCT116; 20 μM drug, C strain): 34.9 ± 0.3%; shATG4B/HCT116 Cell Viability (shATG4B/HCT116; 20 μM drug, S strain): 34.5 ± 1.7%; AsPC-1 Cell Viability (AsPC-1): 33.6 ± 1.2%"
COc1ccc2c(c1)C(=O)N(CCc1ccc(S(=O)(=O)NC(=O)NC3CCCCC3)cc1)C(=O)C2(C)C [Gliquidone],–,–,88.4 ± 7.3,89.6 ± 0.6,92.4 ± 5.3,87 ± 1.6,–
CCC(C)n1ncn(-c2ccc(N3CCN(c4ccc(OCC5COC(Cn6cncn6)(c6ccc(Cl)cc6Cl)O5)cc4)CC3)cc2)c1=O (stereo not shown) [Itraconazole],–,–,84.1 ± 1.9,91.3 ± 2.3,93.6 ± 6.3,82.6 ± 2.1,–
COC(=O)N[C@H](C(=O)N1CC2(CC2)C[C@H]1c1nc(-c2ccc3c(c2)C(F)(F)c2cc(-c4ccc5[nH]c([C@@H]6[C@H]7CC[C@H](C7)N6C(=O)[C@@H](NC(=O)OC)C(C)C)nc5c4)ccc2-3)c[nH]1)C(C)C [Ledipasvir],–,–,–,–,95.2 ± 2.9,–,"viability at 20 µM (shCtrl/HCT116; HCT-116, read-out: shCtrl/HCT116 Cell Viability, remaining viability, 20 μM drug, C strain): 72.5 ± 0.8%; viability at 20 µM (shATG4B/HCT116; HCT-116, read-out: shATG4B/HCT116 Cell Viability): 90.2 ± 1.8%; difference of cell viability inhibition between shATG4B/HCT116 (S strain) and shCtrl/HCT116 (C strain) (shATG4B/HCT116): statistically significant; also recorded: significant differences; viability at 20 µM (HCT116; HCT-116, read-out: HCT116 Cell Viability, remaining viability, 20 μM drug, normalized by blank control, three repeats): 82.9 ± 2.7%"
Cc1ccccc1-c1cc(N2CCN(C)CC2)ncc1N(C)C(=O)C(C)(C)c1cc(C(F)(F)F)cc(C(F)(F)F)c1 [Netupitant],statistically significant,2.8 ± 0.4,–,–,43,3,AsPC-1 Cell Viability (AsPC-1): 42.9 ± 5.1%
Cc1cn(-c2cc(NC(=O)c3ccc(C)c(Nc4nccc(-c5cccnc5)n4)c3)cc(C(F)(F)F)c2)cn1 [Nilotinib],–,–,59.6 ± 1.7,68.2 ± 1.1,95.2 ± 3.4,61.4 ± 4.4,–
Cc1cnc(C(=O)N[C@H]2CCCCC/C=C\[C@@H]3C[C@@]3(C(=O)NS(=O)(=O)C3CC3)NC(=O)[C@@H]3C[C@@H](Oc4nc5ccccc5c5ccccc45)CN3C2=O)cn1 [Paritaprevir],–,–,75.4 ± 1.3,88 ± 1.4,98.7 ± 3,85.8 ± 3.3,difference of cell viability inhibition between shATG4B/HCT116 (S strain) and shCtrl/HCT116 (C strain) (shATG4B/HCT116): statistically significant; also recorded: significant differences
Cc1ccc(C(=O)Nc2ccc(CN3CCN(C)CC3)c(C(F)(F)F)c2)cc1C#Cc1cnc2cccnn12 [Ponatinib],–,18.5 ± 0.6,21,31,47,19,"shCtrl/HCT116 Cell Viability (shCtrl/HCT116; 20 μM drug, C strain): 21.3 ± 0.6%; inhibition at 5 µM (ATG4B): 30%; AsPC-1 Cell Viability (AsPC-1): 47.2 ± 1.3%; IC50 (AK4.4): 510 nM"
CC(C)(C)NC(=O)[C@@H]1C[C@@H]2CCCC[C@@H]2CN1C[C@@H](O)[C@H](Cc1ccccc1)NC(=O)[C@H](CC(N)=O)NC(=O)c1ccc2ccccc2n1 [Saquinavir],–,–,63.5 ± 0.8,65.4 ± 1.2,84.6 ± 5.5,67 ± 1.2,–
Cc1ccc(C(=O)Nc2ccc(S(=O)(=O)O)c3cc(S(=O)(=O)O)cc(S(=O)(=O)O)c23)cc1NC(=O)c1cccc(NC(=O)Nc2cccc(C(=O)Nc3cc(C(=O)Nc4ccc(S(=O)(=O)O)c5cc(S(=O)(=O)O)cc(S(=O)(=O)O)c45)ccc3C)c2)c1 [Suramin],–,–,104 ± 4.4,98.3 ± 0.7,107 ± 6.5,100 ± 2.3,–
CO[C@H]1C[C@@H]2CC[C@@H](C)[C@@](O)(O2)C(=O)C(=O)N2CCCC[C@H]2C(=O)O[C@H]([C@H](C)C[C@@H]2CC[C@@H](OC(=O)C(C)(CO)CO)[C@H](OC)C2)CC(=O)[C@H](C)/C=C(\C)[C@@H](O)[C@@H](OC)C(=O)[C@H](C)C[C@H](C)/C=C/C=C/C=C/1C [Temsirolimus],statistically significant,–,50,60,69 ± 4.2,52.1 ± 0.9,"shCtrl/HCT116 Cell Viability (shCtrl/HCT116; 20 μM drug, C strain): 49.5 ± 3.5%; difference of cell viability inhibition between shATG4B/HCT116 (S strain) and shCtrl/HCT116 (C strain) (shATG4B/HCT116; listed as emsirolimus): significant differences; difference of cell viability inhibition between shATG4B/HCT116 (S strain) and shCtrl/HCT116 (C strain) (shATG4B/HCT116; listed as temsirolimus): statistically significant; shATG4B/HCT116 Cell Viability (shATG4B/HCT116; 20 μM drug, S strain): 60.5 ± 1.9%"
autophagy related 4B cysteine peptidase (ATG4B) (protein) MDAATLTYDTLRFAEFEDFPETSEPVWILGRKYSIFTEKDEILSDVASRLWFTYRKNFPAIGGTGPTSDTGWGCMLRCGQMIFAQALVCRHLGRDWRWTQRKRQPDSYFSVLNAFIDRKDSYYSIHQIAQMGVGEGKSIGQWYGPNTVAQVLKKLAVFDTWSSLAVHIAMDNTVVMEEIRRLCRTSVPCAGATAFPADSDRHCNGFPAGAEVTNRPSPWRPLVLLIPLRLGLTDINEAYVETLKHCFMMPQSLGVIGGKPNSAHYFIGYVGEELIYLDPHTTQPAVEPTDGCFIPDESFHCQHPPCRMSIAELDPSIAVGFFCKTEDDFNDWCQQVKKLSLLGGALPMFELVELQPSHLACPDVLNLSLDSSDVERLERFFDSEDEDFEILSL,–,–,–,–,–,–,"cleavage of recombinant pro-LC3B (S-tag band on western blot) [1]: P: positive control, pro-LC3 mixed with ATG4B, and the cleavage by ATG4B resulting in the lighter band for S-tag; normalized S-tag band intensity (LICOR; divided by the negative control N) of lane P, no peptide, blot of the N7 series, ATG4B cleavage assay [1]: 0.3; normalized S-tag band intensity (divided by the negative control N) of lane P, no peptide, blot of the N18 series, ATG4B cleavage assay [1]: 0.3; normalized S-tag band intensity (image J; divided by the negative control N) of lane P, no peptide, blot of the N7 series, ATG4B cleavage assay [1]: 0.4"
